Source: US20170314007A1, “MEDICAMENT DESIGN POCKET OF ORNITHINE DECARBOXYLASE AND APPLICATION OF MEDICAMENT DESIGN POCKET” (CHINA THREE GORGES UNIVERSITY, priority 2014, published 2017)

Target: T1, human ODC (Homo sapiens, UniProt P11926)
T1 construct: His tag (from pET28a); made in house; host or cells: Escherichia coli BL21
T1 sequence (P11926 1-461): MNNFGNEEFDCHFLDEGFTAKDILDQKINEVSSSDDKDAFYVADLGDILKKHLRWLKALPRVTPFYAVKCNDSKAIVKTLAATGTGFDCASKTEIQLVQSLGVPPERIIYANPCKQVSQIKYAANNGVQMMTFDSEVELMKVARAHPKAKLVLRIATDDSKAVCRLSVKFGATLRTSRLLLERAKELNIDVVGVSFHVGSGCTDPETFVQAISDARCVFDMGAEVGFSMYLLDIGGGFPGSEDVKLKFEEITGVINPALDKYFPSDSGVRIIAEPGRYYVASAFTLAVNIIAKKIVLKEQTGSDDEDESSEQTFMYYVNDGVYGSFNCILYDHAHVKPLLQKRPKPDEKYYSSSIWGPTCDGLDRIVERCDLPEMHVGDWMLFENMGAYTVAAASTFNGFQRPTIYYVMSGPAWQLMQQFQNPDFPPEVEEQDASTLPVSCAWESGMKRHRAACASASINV
Assay: Detection of inhibitory activity of inhibitor for human ODC protein (absorbance at 426 nm, ODC inhibition ratio)
Assay type: biochemical
Conditions: for inhibitory capacity on human ODC compared with DFMO: 1 mM of the medicament, comparison of histograms with DFMO inhibitor
Method: 400 uL substrate reaction mixture and 50 ug ODC protein are added to EP tube, mixed evenly, and the EP tube is placed in 37° C. water bath for 30 min; 400 uL 10% TDA is added to terminate the reaction, centrifuged 5 min at 5000 rpm at room temperature, then 100 uL supernatant is fetched and mixed with 200 uL of 4 mol/L NaOH, 400 uL of n-amyl alcohol is added to mix well, centrifuged 5min at 2000 rpm, then 200 uL of the supernatant is transferred to a new EP tube, and 200 uL of 0.1 mol/L sodium tetraborate (pH 8.0) is added to mix evenly, and 200 uL of 10 mmol/L trinitrobenzene sulfonic acid is added to mix fully, and then 400 uL DMSO is added to fix fully for 1 min, centrifuged 5 min at 3000 rpm; finally the supernatant is fetched to 96-well plate and its absorbance at 426 nm is detected by a microplate reader, to get the OD value with out adding […];
According to the method described in step 4), after adding 400 μL substrate reaction mixture, the ODC inhibitor is added immediately, and subsequent procedures are the same as the step 4);
The ODC inhibition ratio is calculated according to the following formula;
Control difference=the mean OD value of the control group adding the inhibitor−the mean OD value of the control group without adding inhibitor, of which, the inhibitor added in step 5) in the control group is DFMO inhibitor;
Experimental difference= the mean OD value of the experiment group adding the inhibitor−the mean OD value of the experiment group without adding inhibitor.
ODC inhibition ratio=[(control difference-experimental difference)/control difference]×100%.
The substrate reaction mixture in step 4): dissolve 17.57 ul β-mercaptoethanol, 55.84mg of 1.5 mM EDTA disodium salt, 75 nM PLP stock solution and 2 mM ornithine hydrochloride in 150 mM PBS (pH 7.1).
400 uL substrate reaction mixture (17.57 ul of β-mercaptoethanol, 55.84 mg of 1.5 mM EDTA disodium salt, 75 nM PLP stock solution, 2 mM ornithine hydrochloride are dissolved in 150 mM PBS (pH 7.1)) and 50 ug ODC protein are added to a 1.5 mL of EP tube, mixed evenly, and the EP tube is placed in 37° C water bath for 30 min; 400 uL 10% TDA is added to terminate the reaction, centrifuged 5 min at 5000 rpm at room temperature, then 100 uL supernatant is fetched and mixed with 200 uL of 4 mol/L NaOH, 400 uL of n-amyl alcohol is added to mix well, centrifuged 5 min at 2000 rpm then 200 uL of the supernatant is transferred to a new EP tube, and 200 uL of sodium tetraborate (0.1 mol/L, pH 8.0) is added to mix evenly, and 200 uL of 10 mmol/L trinitrobenzene sulfonic acid is added to mix fully, and then 400 uL DMSO is added to fix fully for 1 min, centrifuged 5 min at 3000 rpm, finally the supernatant is fetched to 96-well plate and its absorbance at 426 nm is detected by a microplate reader. […]

Row | inhibitory capacity on human ODC compared with DFMO | SMILES | other results
1 |  | N#Cc1ccc(C2Nc3cccc4cccc(c34)N2)cc1 | inhibitory activity on human ODC (concentration range 1 nM-5 mM, histogram FIG. 5): has the ability to inhibit human ODC activity within the range of 1 nM-5 mM, and the higher the concentration, the stronger tire inhibitory ability
2 | equivalent to that of 2.5 mM DFMO | CCOC(=O)c1cccc(NC(=O)c2ccccc2)c1 [D17, ethyl-3-(benzoylamino) methyl benzoate] | 
3 |  | CN(C)c1ccc(/C=N/Nc2nc(N)nc(N)n2)cc1 [4-(dimethylamino)-benzaldehyde-(4,6-diamino-1,3,5) triazine] | inhibitory activity on human ODC (concentration range 1 nM-1 mM, histogram FIG. 9, compared with DFMO): has inhibitory effect on human ODC activity within the concentration range of 1 nM-1 mM
4 | equivalent to that of 2.5 mM DFMO | COc1ccc(C(=O)C[n+]2ccccc2/C=N/[O-])cc1 [D19, 2-[(hydroxyimino)methyl]-1-[2-(4-methoxyphenyl)-2-oxoethyl] pyridinium] | 
